Assay results as given in paper PMC10965189, “Phytochemical investigation on the aerial parts of Veratrum versicolor f. viride Nakai and their biological activities” (Turkish Journal of Chemistry, 2023).
Like-named read-outs stand apart in the source and are kept apart here.

How the values were obtained:
mushroom tyrosinase = assay: Tyrosinase inhibition assay; assay type: biochemical; conditions: L-tyrosine, 37 °C 20 min, three experiments, read-out: Tyrosinase inhibitory activity IC50
Method: The reaction was carried out in a 0.1 M potassium phosphate buffer (pH 6.5) containing 1.5 mM L-tyrosine and 1250 unit/mL mushroom tyrosinase and the reaction mixture was incubated at 37 °C for 20 min. The test samples were assayed for tyrosinase inhibition by measuring its effect on tyrosinase activity using an ELISA reader at 490 nm. Arbutin was used as a positive control. The inhibitory activity of the sample was expressed as the concentration that inhibits 50% of the enzyme activity (IC50).

[1] = tested on: B16F10 mouse melanoma cells; assay: Measurement of relative melanin contents in α-MSH-stimulated cells; assay type: cell-based
[2] = target: T1, PPE (porcine pancreas elastase) (Sus scrofa, UniProt P00772); assay: Elastase inhibition assay; assay type: biochemical
T1 construct: from tissue; host or cells: porcine pancreas
T1 sequence (P00772 27-266): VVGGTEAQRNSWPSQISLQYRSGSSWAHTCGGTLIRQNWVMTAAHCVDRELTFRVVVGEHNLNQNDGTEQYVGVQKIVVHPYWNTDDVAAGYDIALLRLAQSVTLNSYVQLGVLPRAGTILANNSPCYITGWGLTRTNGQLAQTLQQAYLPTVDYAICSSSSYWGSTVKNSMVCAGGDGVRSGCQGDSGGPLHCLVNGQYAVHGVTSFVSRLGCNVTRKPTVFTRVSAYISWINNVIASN
Method: The reaction was carried out in a 50 mM Tris-HCl buffer (pH 8.5) containing 1 mg/mL N-succinyl-(Ala)3-p-nitroanilide and 0.6 U/mL PPE (porcine pancreas elastase). The test sample was added to the reaction mixture, and elastase inhibition was incubated at 25 °C for 10 min. The change in absorbance was measured at 405 nm using an ELISA reader. Ursolic acid was used as a positive control. The inhibitory activity of the sample was expressed as the concentration that inhibits 50% of the enzyme activity (IC50).

[3] = tested on: B16F10 mouse melanoma cells; assay: Measurement of relative melanin contents in α-MSH-stimulated cells; assay type: cell-based; conditions: for activity at 25 µM / activity at 50 µM / activity at 100 µM / inhibition at 100 µM: Mus musculus, B16-F10; for activity at 25 µM / activity at 50 µM / activity at 100 µM: 100 nM α-MSH, 72 h; for activity at 100 µM / effect on melanin content compared to arbutin: 100 μM; for effect on melanin content compared to arbutin: arbutin 400 μM
Method: B16F10 mouse melanoma cells were cultured in DMEM medium containing 10% FBS and 1% penicillin-streptomycin in a 37 °C incubator with 5% CO2. The cells were seeded in 100-mm tissue culture dishes to be used for subsequent experiments.
B16F10 cells (1 × 10^5/well) were seeded in 6 well plates for 24 h. The cells were then incubated in the presence of 100 nM α-MSH, and treated with various concentrations (25, 50, and 100 μM) of sample for 72 h. After being washed twice with PBS, the cells were dissolved of 1 N NaOH and 10% DMSO, incubated at 60 °C for 1 h, and mixed to solubilize the melanin. Relative melanin content was determined with an ELISA reader by absorbance at 405 nm.

[4] = porcine pancreas elastase, N-succinyl-(Ala)3-p-nitroanilide, 25 °C 10 min, three experiments, read-out: Elastase inhibitory activity IC50
[5] = at a concentration of 100 μM, read-out: inhibition of melanogenesis
[6] = in the range of 50 ~ 100 μM, α-MSH-stimulated, read-out: inhibition percentage of melanin production

Row | IC50 (mushroom tyrosinase) [µM] | IC50 [2, 4] [µM] | Structure (SMILES) | activity at 400 µM ([1]; B16-F10, 100 nM α-MSH, 72 h) [%] | inhibition at 400 µM ([1]; B16-F10, α-MSH-stimulated, read-out: inhibition rate of melanin production) [%] | activity at 25 µM [3] [%] | activity at 50 µM [3] [%] | activity at 100 µM [3] [%] | IC50 [2] [µM] | inhibition at 100 µM [3, 5] [%] | effect on melanin content compared to arbutin ([3]; α-MSH-stimulated) | inhibition at 100 µM [3, 6] [%]
1 | 474 ± 18.2 | – | OC[C@H]1O[C@@H](Oc2ccc(O)cc2)[C@H](O)[C@@H](O)[C@@H]1O [Arbutin] | 30.7 ± 3.34 | 69.2 | – | – | – | – | – | – | –
2 | – | > 1000 | COc1cc(C(=O)O)ccc1O [Compound 1, Vanillic acid] | – | – | 91.3 ± 4.81 | 74.78 ± 0.69 | 64 ± 1.45 | – | – | – | –
3 | 51.2 ± 5.5 | > 1000 | OC[C@H]1O[C@@H](Oc2cc(O)cc(/C=C/c3ccc(O)cc3)c2)[C@H](O)[C@@H](O)[C@@H]1O [Compound 2, trans-Piceid] | – | – | 136 ± 3.36 | 132 ± 6.52 | 116 ± 6.39 | – | – | – | –
4 | 19.8 ± 0.77 | > 1000 | Oc1ccc(/C=C/c2cc(O)cc(O)c2)cc1 [Compound 4, Resveratrol] | – | – | 82.3 ± 1.18 | 27.3 ± 5.83 | 17.3 ± 0.01 | – | 70.4 to 91 | greatly decreased | 72.7 to 82.7
5 | 37.9 ± 1.04 | 292 ± 14.4 | O=c1cc(-c2ccc(O)c(O)c2)oc2cc(O)cc(O)c12 [Compound 5, Luteolin] | – | – | 18 ± 0.76 | 16.4 ± 1.65 | 8.99 ± 0.73 | – | 70.4 to 91 | greatly decreased | 83.5 to 91
6 | > 100 | > 1000 | O=c1cc(-c2ccc(O)cc2)oc2cc(O)cc(O)c12 [Compound 6, Apigenin] | – | – | 83.6 ± 3.01 | 63.2 ± 2.11 | 16.2 ± 1.52 | – | 70.4 to 91 | – | –
7 | – | – | COc1cc(-c2cc(=O)c3c(O)cc(O)cc3o2)ccc1O [Compound 8, Chrysoeriol] | – | – | 37 ± 4.57 | 27.3 ± 0.8 | 23.4 ± 2.19 | – | 70.4 to 91 | greatly decreased | 72.6 to 76.6
8 | – | 96.9 ± 1.33 | C[C@H]1[C@H](C)CC[C@]2(C(=O)O)CC[C@]3(C)C(=CC[C@@H]4[C@@]5(C)CC[C@H](O)C(C)(C)[C@@H]5CC[C@]43C)[C@H]12 [Ursolic acid, reference compound] | – | – | – | – | – | – | – | – | –

Row | Structure (SMILES) | IC50 (mushroom tyrosinase) [µM] | IC50 [2, 4] [µM] | activity at 400 µM ([1]; B16-F10, 100 nM α-MSH, 72 h) [%] | inhibition at 400 µM ([1]; B16-F10, α-MSH-stimulated, read-out: inhibition rate of melanin production) [%] | activity at 25 µM [3] [%] | activity at 50 µM [3] [%] | activity at 100 µM [3] [%] | IC50 [2] [µM] | inhibition at 100 µM [3, 5] [%] | effect on melanin content compared to arbutin ([3]; α-MSH-stimulated) | inhibition at 100 µM [3, 6] [%]
9 | Oc1cc(O)cc(/C=C/c2ccc(O)cc2O)c1 [Compound 3, Oxyresveratrol] | 6.42 ± 0.45 | – | – | – | 118 ± 3.73 | 109 ± 1.96 | 29.6 ± 2.21 | > 1000 | 70.4 to 91 | – | –
10 | COc1cc(-c2cc(=O)c3c(O)cc(O)cc3o2)cc(OC)c1O [Compound 7, Tricin] | > 100 | > 1000 | – | – | 65.2 ± 1.18 | 65.4 ± 1.41 | 56.4 ± 0.89 | – | – | – | –
